Experimental findings from paper PMC9116245, “New 1,2,3-triazole linked ciprofloxacin-chalcones induce DNA damage by inhibiting human topoisomerase I& II and tubulin polymerization” (Journal of Enzyme Inhibition and Medicinal Chemistry, 2022) are described below.

One assay has as its target T1, Topo IIα (Homo sapiens, UniProt P11388).
T1 construct: purchased Topogen Inc. TG1001
The experiment in a line: Human Topoisomerase II assay kit (TG1001). The class given is biochemical. Conditions: 10 µM. As to the method:
Second, the inhibitory activity of Topo IIα was evaluated for compounds 4a, 4b, 4e, 4i, and 4j utilising Human Topoisomerase II assay kit (TG1001, Topogen Inc.). […] The above results are compatible with our design of these hybrids as Top-II inhibitors.
The inhibitory activity of the selected ciprofloxacin hybrids on human Top-II was tested using a Human Topoisomerase II assay kit (TG1001, Topogen Inc.). In this assay, 1% agarose gel was used, and the compounds were tested at two different concentrations, 10 and 100 µM. Also, etoposide was used as a positive control in this experiment. The assay was performed according to the manufacturer’s protocol. The image of the electrophoretic gel was captured using an imaging system (iBright-CL1500, Thermo Fisher Scientific).

For another assay, the target named is T2, Human topoisomerase I (Homo sapiens, UniProt P11387).
T2 construct: purchased Topogen Inc., USA TG-1015
T2 sequence (P11387 1-765): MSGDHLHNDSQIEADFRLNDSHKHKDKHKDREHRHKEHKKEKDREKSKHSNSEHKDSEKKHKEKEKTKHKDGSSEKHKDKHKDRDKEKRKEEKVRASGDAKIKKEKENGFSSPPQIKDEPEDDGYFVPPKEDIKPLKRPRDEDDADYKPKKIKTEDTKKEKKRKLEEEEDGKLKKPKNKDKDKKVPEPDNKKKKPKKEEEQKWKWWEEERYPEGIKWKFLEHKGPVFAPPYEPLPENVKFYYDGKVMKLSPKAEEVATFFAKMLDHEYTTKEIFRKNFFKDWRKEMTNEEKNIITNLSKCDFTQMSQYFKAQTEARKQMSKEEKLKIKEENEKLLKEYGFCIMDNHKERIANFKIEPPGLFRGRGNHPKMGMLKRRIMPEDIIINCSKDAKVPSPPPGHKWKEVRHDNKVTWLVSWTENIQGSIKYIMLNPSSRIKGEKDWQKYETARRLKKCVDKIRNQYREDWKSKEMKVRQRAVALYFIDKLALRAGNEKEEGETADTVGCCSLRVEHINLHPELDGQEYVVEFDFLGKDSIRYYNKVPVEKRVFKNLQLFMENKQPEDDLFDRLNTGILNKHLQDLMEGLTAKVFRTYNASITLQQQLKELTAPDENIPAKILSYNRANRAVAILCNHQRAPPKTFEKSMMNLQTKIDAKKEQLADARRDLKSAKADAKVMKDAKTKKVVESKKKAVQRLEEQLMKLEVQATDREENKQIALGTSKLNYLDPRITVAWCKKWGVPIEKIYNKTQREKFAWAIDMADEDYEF
In words: DNA relaxation assay (gel electrophoresis). The class given is biochemical. The conditions noted are these: compounds at their IC50 values. The method, then: Based on our design, we hypothesised that the new CP hybrids 4a-j could act as multi-target ligands that can block the catalytic activity of topoisomerases I (Topo-I), topoisomerases (Topo-II), and inhibit tubulin polymerisation as possible targets for the anti-proliferative activity. First, the Topo-I activity was tested by the DNA relaxation assay. The supercoiled plasmid has been utilised as a substrate in the relaxation assay to study the inhibition of DNA Topo-I activity. […] Two different assays were used to examine the inhibitory activity of IC50 of the CP hybrids against Human topoisomerase I. Firstly; Gel electrophoresis-based assay (DNA relaxation assay) was performed following the manufacturer's protocol (TG-1015, Topogen Inc., USA). Secondly, the inhibitory activity of compounds 4a, 4b, 4e, 4i, 4j, and camptothecin to human topoisomerase I was analysed by Human DNA Topoisomerase I Assay Kit (ProFoldin, Hudson, MA, USA) with recombinant human DNA topoisomerase I (Sigma-Aldrich) according to the manufacturer’s protocol.

The subject of the next assay is tubulin polymerisation. In words: Tubulin immunofluorescence microscopy in HCT116 cells. It is filed as cell-based, human. Conditions: HCT116, IC50 of compound, 36 h. The method, then: The process of tubulin polymerisation in the cells is important for the completion of mitosis and is targeted for cancer treatment. It has been reported that the suppression of tubulin polymerisation will arrest the cells at the G2/M and it eventually leads to cell death. To test the tubulin-disruptive effect of the CP hybrids, HCT116 cells were analysed by immunocytochemistry. HCT116 cells were incubated for 36 h with IC50 of the CP hybrids (4a, 4b, 4e, 4i, and 4j), nocodazole (a well-known tubulin polymerisation inhibitor, as a positive control), DMSO or Paclitaxel (a well-known tubulin polymerisation inducer, as a negative control), and tubulin was visualised by immunofluorescence microscopy. An antibody for α-tubulin was used. […] Moreover, a Western blot was performed to verify the tubulin polymerisation inhibition ability of the synthesised compounds (Figure 8(B)). The level of polymerised tubulin was decreased in HCT116 cells treated with IC50 values of CP hybrids 4a, 4b, 4e, 4i, 4j, or nocodazole.
(§1) HCT116 cells were cultured and treated with the IC50 of the potent compounds (4a, 4b, 4e, 4i, and 4j) or DMSO (control), fixed, permeabilized, and they were incubated with either γH2AX or α-tubulin antibody as the reported procedure in the literature. Confocal images were captured using a Confocal Microscope with a 63X objective. All images were processed using ImageJ software. See Supplementary Appendix A.

A further assay has as its system HCT116 cells. The experiment in a line: Analysis of cell cycle distribution. The class given is cell-based, human. Conditions: HCT116, different concentrations, 24 h. An excerpt: Generally, the mammalian cells counteract the DNA damage by different mechanisms including the cell cycle arrest to allow the cell to repair the damage. There are 2 checkpoints that control DNA damage. The first checkpoint is at the G1/S transition while the other checkpoint is at the G2/M transition. To cover the mechanisms of the synthesised compounds in inhibiting cell proliferation, we analysed the distribution of cell cycle of HCT116 cells following the treatment with different doses of 4a, 4b, 4e, 4i, and 4j. […] See Supplementary Appendix A.

Assay [1] has as its system γH2AX. In words: γH2AX western blotting in HCT116 cells. It is filed as cell-based, human. Conditions: HCT116, IC50 of compound, versus control cells. The source says: (§2) DNA damage is a major reason for inhibiting proliferation and inducing cytotoxicity in cancer cells as well as the main downstream cascade for the Topo-I, Top-II, and tubulin polymerisation inhibition. The phosphorylation of the histone H2AX always occurs after DNA damage forming double-stranded breaks (DSBs). Therefore, we tested the capability of the potent prepared compounds to trigger DNA double strand breaks through detection of the phosphorylation of γH2AX using two different techniques, Immunofluorescence, and western blotting.
Western blotting analysis for HCT116 cells was performed according to the reported procedure in the literature[77–79] to determine the effects of CP hybrids; 4a, 4b, 4e, 4i, and 4j on the expression of polymerised tubulin, γH2AX, p-ATR, p-CHK1, and p-Cdc25C by using the appropriate antibody. See Supplementary Appendix A.

Assay [2] has as its system γH2AX. In words: γH2AX immunofluorescence in HCT116 cells. The class given is cell-based, human. The conditions noted are these: HCT116, IC50 of compound.
Text: as §2, §1

Assay [3] concerns the target T3, recombinant human DNA topoisomerase I (Homo sapiens, UniProt P11387).
T3 construct: purchased Sigma-Aldrich
T3 sequence (P11387 1-765): T2 sequence (P11387 1-765)
The experiment in a line: Human DNA Topoisomerase I Assay Kit (ProFoldin). It is filed as biochemical. Conditions: compounds at their IC50 values, reference camptothecin.

Structures are written as SMILES.

T1 sequence (P11388 whole entry): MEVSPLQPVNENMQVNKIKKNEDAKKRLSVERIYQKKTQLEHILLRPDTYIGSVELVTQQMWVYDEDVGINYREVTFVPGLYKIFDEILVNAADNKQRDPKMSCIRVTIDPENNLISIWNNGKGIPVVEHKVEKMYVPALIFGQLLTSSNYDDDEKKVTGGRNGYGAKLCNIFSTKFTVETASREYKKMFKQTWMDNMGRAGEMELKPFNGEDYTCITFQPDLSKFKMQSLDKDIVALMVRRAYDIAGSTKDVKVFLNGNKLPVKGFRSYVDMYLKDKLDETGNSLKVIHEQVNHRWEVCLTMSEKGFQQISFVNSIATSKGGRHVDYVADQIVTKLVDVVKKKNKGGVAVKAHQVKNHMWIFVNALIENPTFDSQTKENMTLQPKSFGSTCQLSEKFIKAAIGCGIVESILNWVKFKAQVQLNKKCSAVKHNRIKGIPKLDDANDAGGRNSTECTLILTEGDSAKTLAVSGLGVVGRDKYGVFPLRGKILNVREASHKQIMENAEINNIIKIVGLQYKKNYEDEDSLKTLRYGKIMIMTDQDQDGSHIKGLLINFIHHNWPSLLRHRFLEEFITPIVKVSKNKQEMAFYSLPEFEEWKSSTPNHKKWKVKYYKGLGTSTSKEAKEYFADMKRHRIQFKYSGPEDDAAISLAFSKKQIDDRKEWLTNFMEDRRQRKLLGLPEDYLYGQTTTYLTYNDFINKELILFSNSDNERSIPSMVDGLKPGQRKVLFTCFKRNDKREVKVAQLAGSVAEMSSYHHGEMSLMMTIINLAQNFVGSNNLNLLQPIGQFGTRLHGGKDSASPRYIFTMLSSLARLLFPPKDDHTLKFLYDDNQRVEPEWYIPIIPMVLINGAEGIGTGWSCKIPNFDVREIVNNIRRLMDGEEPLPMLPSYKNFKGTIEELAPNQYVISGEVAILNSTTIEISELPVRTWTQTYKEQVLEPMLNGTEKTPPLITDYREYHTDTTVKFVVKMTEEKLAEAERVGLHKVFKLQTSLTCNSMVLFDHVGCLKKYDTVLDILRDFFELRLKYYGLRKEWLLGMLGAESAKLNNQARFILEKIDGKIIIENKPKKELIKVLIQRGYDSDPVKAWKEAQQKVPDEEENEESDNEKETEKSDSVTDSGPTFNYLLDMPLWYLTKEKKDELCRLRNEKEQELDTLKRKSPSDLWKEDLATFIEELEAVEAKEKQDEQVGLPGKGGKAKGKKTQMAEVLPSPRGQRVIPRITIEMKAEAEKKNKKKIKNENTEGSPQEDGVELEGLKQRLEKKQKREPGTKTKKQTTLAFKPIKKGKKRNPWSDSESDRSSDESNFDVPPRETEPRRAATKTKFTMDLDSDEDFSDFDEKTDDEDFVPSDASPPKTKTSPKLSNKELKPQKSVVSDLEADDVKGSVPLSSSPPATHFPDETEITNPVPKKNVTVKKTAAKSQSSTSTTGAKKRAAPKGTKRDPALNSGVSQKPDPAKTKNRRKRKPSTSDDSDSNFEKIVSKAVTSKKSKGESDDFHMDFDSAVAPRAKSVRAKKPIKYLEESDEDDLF

With `O=C(/C=C/c1ccccc1)c1ccc(-n2cc(CN3CCN(c4cc5c(cc4F)c(=O)c(C(=O)O)cn5C4CC4)CC3)nn2)cc1` [Compound 4a, (E) 7-(4-((1–(4-Cinnamoylphenyl)-1H-1,2,3-triazol-4-yl)methyl)piperazin-1-yl)-1-cyclopropyl-6-fluoro-4-oxo-1,4-dihydroquinoline-3-carboxylic acid], on Topo IIα, the Topo-II inhibitory activity entry is “stronger inhibitory activity than 4b, 4i, and ETO”. At Human topoisomerase I, the “Topo-I catalytic activity, DNA relaxation” value (shortened to “Topo-I catalytic activity”) was “could inhibit Topo-I catalytic activity”. In the assay on tubulin polymerisation, the “tubulin polymerisation, morphological changes by immunofluorescence” value was “significant tubulin polymerisation inhibition”. In addition, the cell cycle distribution entry in the assay with HCT116 cells was “induced G2/M phase cell cycle arrest in a concentration-dependent manner”. The “γH2AX protein expression, western blotting” value (“γH2AX protein expression” for short) in the assay on γH2AX [1] was “increases in the γH2AX protein expression”. For the same compound, in the assay on γH2AX [2], the γH2AX foci formation entry is recorded as “induced γH2AX foci formation”. In assay [3], the “Top-I inhibitory activity, enzyme assay kit” value (shortened to “Top-I inhibitory activity”) is given as “highest Top-I inhibitory activity”.
As to `O=C(/C=C/c1cccc(Cl)c1)c1ccc(-n2cc(CN3CCN(c4cc5c(cc4F)c(=O)c(C(=O)O)cn5C4CC4)CC3)nn2)cc1` [Compound 4b, (E)-7-(4-((1–(4-(3-(3-chlorophenyl)acryloyl)phenyl)-1H-1,2,3-triazol-4-yl)methyl)piperazin-1-yl)-1-cyclopropyl-6-fluoro-4-oxo-1,4-dihydroquinoline-3-carboxylic acid], the “Topo-I catalytic activity” value at Human topoisomerase I is reported as “could inhibit Topo-I catalytic activity”. The “tubulin polymerisation, morphological changes by immunofluorescence” value with tubulin polymerisation was “significant tubulin polymerisation inhibition”. In the assay with HCT116 cells, the cell cycle distribution result is “induced G2/M phase cell cycle arrest in a concentration-dependent manner”. Also, in the assay with γH2AX [1], the “γH2AX protein expression” value is “increases in the γH2AX protein expression”. Further, in the assay on γH2AX [2], the γH2AX foci formation entry is reported as “induced γH2AX foci formation”.
As to `O=C(/C=C/c1ccc(F)cc1)c1ccc(-n2cc(CN3CCN(c4cc5c(cc4F)c(=O)c(C(=O)O)cn5C4CC4)CC3)nn2)cc1` [Compound 4e, (E)-1-cyclopropyl-6-fluoro-7–(4-((1–(4-(3-(4-fluorophenyl)acryloyl)phenyl)-1H-1,2,3-triazol-4-yl)methyl)piperazin-1-yl)-4-oxo-1,4-dihydroquinoline-3-carboxylic acid], the Topo-II inhibitory activity result on Topo IIα is “stronger inhibitory activity than 4b, 4i, and ETO”. Further, on Human topoisomerase I, the “Topo-I catalytic activity” value is given as “could inhibit Topo-I catalytic activity”. Besides, the “tubulin polymerisation, morphological changes by immunofluorescence” value with tubulin polymerisation is “significant tubulin polymerisation inhibition”. Besides, the cell cycle distribution result in the assay with HCT116 cells is listed as “induced G2/M phase cell cycle arrest in a concentration-dependent manner”. In addition, in the assay with γH2AX [1], the “γH2AX protein expression” value was “increases in the γH2AX protein expression”. For the same compound, the γH2AX foci formation entry in the assay with γH2AX [2] is recorded as “induced γH2AX foci formation”. For the same compound, the “Top-I inhibitory activity” value in assay [3] is listed as “comparable to camptothecin”.
Consider `COc1ccc(/C=C/C(=O)c2ccc(-n3cc(CN4CCN(c5cc6c(cc5F)c(=O)c(C(=O)O)cn6C5CC5)CC4)nn3)cc2)cc1OC` [Compound 4i, (E)-1-cyclopropyl-7-(4-((1-(4-(3–(3,4-dimethoxyphenyl)acryloyl)phenyl)-1H-1,2,3-triazol-4-yl)methyl)piperazin-1-yl)-6-fluoro-4-oxo-1,4-dihydroquinoline-3-carboxylic acid], for which the “Topo-I catalytic activity” value on Human topoisomerase I was “could inhibit Topo-I catalytic activity”. In addition, the “tubulin polymerisation, morphological changes by immunofluorescence” value with tubulin polymerisation was “significant tubulin polymerisation inhibition”. In addition, the cell cycle distribution result in the assay with HCT116 cells was “induced G2/M phase cell cycle arrest in a concentration-dependent manner”. The “γH2AX protein expression” value in the assay on γH2AX [1] is “increases in the γH2AX protein expression”. Moreover, the γH2AX foci formation entry in the assay on γH2AX [2] is “induced γH2AX foci formation”.
With `COc1cc(/C=C/C(=O)c2ccc(-n3cc(CN4CCN(c5cc6c(cc5F)c(=O)c(C(=O)O)cn6C5CC5)CC4)nn3)cc2)cc(OC)c1OC` [Compound 4j, (E)-1-cyclopropyl-6-fluoro-4-oxo-7–(4-((1–(4-(3-(3,4,5-trimethoxyphenyl)acryloyl)phenyl)-1H-1,2,3-triazol-4-yl)methyl)piperazin-1-yl)-1,4-dihydroquinoline-3-carboxylic acid], the Topo-II inhibitory activity entry on Topo IIα was “stronger inhibitory activity than 4b, 4i, and ETO”. The “Topo-I catalytic activity” value at Human topoisomerase I is recorded as “could inhibit Topo-I catalytic activity”. Also, in the assay on tubulin polymerisation, the “tubulin polymerisation, morphological changes by immunofluorescence” value is on record as “significant tubulin polymerisation inhibition”. The cell cycle distribution entry in the assay with HCT116 cells is listed as “induced G2/M phase cell cycle arrest in a concentration-dependent manner”. Moreover, in the assay with γH2AX [1], the “γH2AX protein expression” value is recorded as “increases in the γH2AX protein expression”. The γH2AX foci formation result with γH2AX [2] was “induced γH2AX foci formation”. Moreover, in assay [3], the “Top-I inhibitory activity” value is given as “less potent Top-1 inhibitor”.
